In assay [1] the target is human DNA pol β (Homo sapiens, UniProt P06746). As to the kind of experiment: Reporter-strand displacement assay, 1536-well format, pol β. Type of assay: biochemical. The conditions noted are these: IC50 against pol β, approximate value.
Assay [2] has as its target T1, human DNA pol ι (Homo sapiens, UniProt Q9UNA4).
T1 sequence (Q9UNA4 1-740): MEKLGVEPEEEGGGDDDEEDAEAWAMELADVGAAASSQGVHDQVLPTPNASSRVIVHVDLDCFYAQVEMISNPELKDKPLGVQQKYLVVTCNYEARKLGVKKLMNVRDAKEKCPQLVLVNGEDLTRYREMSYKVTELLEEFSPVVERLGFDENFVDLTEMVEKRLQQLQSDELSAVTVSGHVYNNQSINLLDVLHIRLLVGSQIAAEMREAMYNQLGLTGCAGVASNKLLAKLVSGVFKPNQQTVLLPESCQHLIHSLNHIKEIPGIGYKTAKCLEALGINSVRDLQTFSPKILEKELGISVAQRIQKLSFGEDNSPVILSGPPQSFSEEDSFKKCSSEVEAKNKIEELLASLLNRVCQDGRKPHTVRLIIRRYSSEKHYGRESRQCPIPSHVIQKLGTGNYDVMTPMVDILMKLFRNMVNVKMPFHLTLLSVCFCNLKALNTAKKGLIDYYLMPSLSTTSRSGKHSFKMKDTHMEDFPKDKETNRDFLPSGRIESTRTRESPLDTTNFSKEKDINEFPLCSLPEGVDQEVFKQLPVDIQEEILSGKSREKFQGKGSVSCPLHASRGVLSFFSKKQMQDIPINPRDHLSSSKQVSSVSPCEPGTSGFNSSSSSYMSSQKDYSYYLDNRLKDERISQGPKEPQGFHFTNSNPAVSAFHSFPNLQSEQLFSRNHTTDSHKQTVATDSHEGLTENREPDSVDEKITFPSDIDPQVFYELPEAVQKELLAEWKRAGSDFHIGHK
Kind of assay: Reporter-strand displacement assay, 1536-well format, pol ι. The settings on record: IC50 against pol ι, approximate value. Type of assay: biochemical.

`O=c1oc2c(O)c(O)cc3c(=O)oc4c(O)c(O)cc1c4c23` [Ellagic acid]: the values for the IC50 in assay [1] and in assay [2] were about 20 nM and about 90 nM, respectively.

As to `O=C(O)C1=CC(=C(c2ccc(O)c(C(=O)O)c2)c2ccc(O)c(C(=O)O)c2)C=CC1=O` [Aurintricarboxylic acid], the IC50 is about 20 nM in assay [1] and about 90 nM in assay [2].

(Values after paper PMC2770649 (Nucleic Acids Research, 2009).)
